Assay results as given in patent US10377647B2, “Systems and methods for use of water with switchable ionic strength” (Queen's University at Kingson, priority 2010, dated 2019).
Where two headings read alike, the source gives them in different places. Values belong to the compound of their own block, whether it stands above or below them.

Experiments:
[1] = Miscibility of diamines and triamines with water before and after CO2; format: physicochemical; details: 5:1 w/w water:additive; for miscibility with water After addition of CO2: CO2 90 min; for miscibility with water Before addition of CO2: room temperature
Description: A 5:1 w/w solution of water and the liquid additive (total volume 5 mL) were mixed together in a glass vial at room temperature. Whether the mixture formed one or two liquid phases was visually observed. Then CO2 was bubbled through the mixture via a single narrow gauge steel needle at a flow rate of ˜5 mL min^−1 for 90 min. Whether the mixture formed one or two phases was visually observed.

[2] = format: physicochemical
Description: Specifically, a 1:1:1 (v/v/v) mixture of DBU, water and compound was added to a six dram vial containing a magnetic stirrer and fitted with a rubber septa. […] A second narrow gauge steel needle was inserted to allow venting of the gaseous phase.
When the compound was THF, a single phase miscible liquid mixture was observed.

[3] = Solution conductivity before and after CO2; format: physicochemical
Description: The solution conductivities of the materials given below were measured. The mass of each material indicated was weighed into a 150 mL beaker charged with a stir bar along with 100 mL of ultra pure water. The solutions were stirred until visibly dissolved and their conductivity measured. […] All solutions were left to stir overnight to test reproducibility. Solution conductivities were re-recorded giving little change in values. CO2 was bubbled at 10 psi through a fine glass frit tube (to make bubble size as small as possible for greater surface area and therefore faster carbonation) with each solution for 30 minutes. In the case of TBAB and functionalized PMMA, significant amounts of bubbling were observed. Solution conductivities were re-recorded.

[4] = Reversible protonation monitored by conductivity, fritted glass apparatus; format: physicochemical
Description: 1:1 v/v solutions of the various additives and distilled, deionised water were prepared in six dram glass vials and transferred to a fritted glass apparatus which acted as a reaction vessel. The fritted glass apparatus consisted of a long narrow glass tube leading to a fine glass frit having a diameter of approximately 4 cm. The other end of the glass frit was connected to a cylindrical glass tube which held the solution of the additive during contacting with the trigger gas. This apparatus allowed a multiple source of trigger gas bubbles to contact the solution, compared to the single point source of Example 5.
A trigger gas chosen from CO2, air or nitrogen was bubbled through the solution via the glass frit at a flow rate of 110 mL min^−1 as measured by a J&W Scientific ADM 2000 Intelligent Flowmeter (CA, USA). For each conductivity measurement, the solution was transferred back to a six dram vial, cooled to 298 K and measured in triplicate. Conductivity measurements were performed using a Jenway 470 Conductivity Meter (Bibby Scientific, NJ, US) having a cell constant of 1.02 cm^−1.

[5] = Degree of protonation of methylated spermine by carbonated water, 1H NMR; format: physicochemical; details: 0.1 M in D2O, room temperature, CO2
Text: (§1) The spectrum was then acquired.
(§2) This process was repeated.

[6] = 4 M solution; cited from earlier work
[7] = Viscosity with and without CO2 (capillary viscometer); format: physicochemical; details: 104.6 mg in 10 mL H2O
Description: In order to study the use of switchable water additives in a method and system for viscosity control, a switchable additive or other molecule of interest was placed in a 50 mL round-bottom flask equipped with a 1 cm magnetic stir-bar and placed on a stir-plate. […] The solution was then transferred in to a Technical Glass Products, Inc. C. F. Opage viscometer with either a 100 or 200 capillary tube. The measurements were taken at room temperature (i.e., from about 15-30° C.) and repeated twice. The solution was transferred back into the round bottom flask and CO2 was introduced to the mixture by bubbling for 30 minutes at a flow rate of 80 ml/min. The carbonated solution was then put into the viscometer and the viscosity was measured three times. The viscosity in centistokes (cS) was calculated from the times the solution took to run through the viscometer.

[8] = Switchable osmotic pressure (Zimm-Meyerson osmometer, hydrostatic pressure); format: physicochemical
Description: The switchable osmotic pressure measurements were conducted on a Zimm-Meyerson osmometer using Sterlitech UTC-80LB toray flat sheet membranes. A 0.1% (w/v) switchable polyamine solution in water was made by dissolving 20 mg of the corresponding polyamine in 20 mL deionized H2O. […] The system was closed with a lid and allowed to reach equilibrium overnight. Measurements of the capillary tube and the control capillary were taken. The draw solution was then taken out of the cell and transferred into a graduated cylinder. Both the draw solution and the solution of the outer cell were carbonated by bubbling CO2 with a gas dispersion tube for 1 h. The draw solution was transferred back into the glass cell of the osmometer, the system was closed and held under an atmosphere of CO2. A constant flow of CO2 was maintained using two gauche needles, one of them connected to a CO2 source with a flow rate of 10 ml/min. The heights taken were height differences of the capillary tube connected to the cell and the control capillary tube. Based on these heights the hydrostatic pressure was calculated using the equation: Π=ρhg where Π is the hydrostatic pressure, ρ is the density of the solution, h is the height of the water column and g is the force of gravity. Hydrostatic pressure is taken to be proportional to osmotic pressure of the solution at equilibrium.

[9] = Degree of protonation by CO2 in D2O by 1H NMR; format: physicochemical; details: 0.1 M in D2O
Text: as §1, §2

[10] = Zeta potential of suspended clay particles; format: physicochemical
Description: (§3) Clay fines were weighed and placed into individual vials (0.025 g, Ward's Natural Science Establishment). Kaolinite and montmorillonite were used as received, but illite clay was ground into a powder using a mortar and pestle. Solutions containing additives were made with deionized water (18.2 MΩ/cm, Millipore) and 10 mL was added to the clay fines. A suspension was created using a vortex mixer and subsequently dispensed into a folded capillary cell. The zeta potential was measured using a Malvern Zetasizer instrument. The errors reported on the zeta potential values were the standard deviations of the zeta potential peaks measured.
(§4) Unless specified, all carbon dioxide treatments were conducted with the aqueous solutions prior to addition to the clay fines. For applicable measurements, ultra pure carbon dioxide (Supercritical CO2 Chromatographic Grade, Paxair) was bubbled through the solutions using a syringe.

[11] = Zeta potential of suspended clay particles; format: physicochemical; details: for Zeta Potential: kaolinite clay
Description: as §3, §4
Another experiment was performed in which CO2 was bubbled through a 1 mM aqueous solution of TMDAB that already contained clay fines (a method referred to as “switching in situ”).

[12] = pH of 5% (w/v) kaolinite suspensions; format: physicochemical
Description: The pH of the following 5% (w/v) kaolinite suspensions were measured: CO2 blank and 1 mM TMDAB and 10 mM TMDAB after CO2-treatment. To investigate the effect of pH on suspension settling behaviour, 5% (w/v) kaolinite suspensions were prepared, and the pH of each suspension was adjusted with HCl and NaOH to match the pH of corresponding treatment conditions. To investigate the effect of ionic strength on suspension settling behaviour, pH was again corrected to match the pH of corresponding treatment conditions, and ionic strength was adjusted with NaCl or ammonium sulphate, assuming all basic sites on the diamine were protonated.

[13] = 1 mM TMDAB + 1 h CO2 + […] N2 at 70° C.

Compound: C1CCC2=NCCCN2CC1 [DBU, 1,8-diazabicyclo-[5.4.0]-undec-7-ene]
solubility of non-ionic amidine form in water [2]: soluble in water

Compound: [Cl-].[Cl-].[Mg+2] [MgCl2]
osmotic pressure [6]: 800 atm

Compound: CN(C)C1CCCCC1 [N,N-dimethylcyclohexylamine]
viscosity without CO2 [7]: 1.0 cS | viscosity with CO2 ([7]; CO2 30 minutes): 1.0 cS | hydrostatic pressure without CO2 ([8]; control experiments, height before CO2 treatment): 580 Pa | hydrostatic pressure with CO2 ([8]; nominal 0.1% (w/v), carbonated 1 h, CO2 atmosphere): 1550 Pa | pressure increase ([8]; ratio with CO2 / without CO2): 2.7

Compound: OCCN(CCO)CCN(CCO)CCO [THEED, N,N,N′,N′-tetrakis(2-hydroxyethyl) ethylenediamine]
% deprotonated ([9]; 2 hours N2 bubbling at 75° C.): 98% | % protonation ([9]; by 10 minutes CO2): 49%

Compound: CCCC[N+](CCCC)(CCCC)CCCC.[Br-] [[^nBu4N]Br, Tetra-n-butylammonium bromide]
C after 30 mins CO2 [3]: 1781 μS/cm | Initial C [3]: 1892 μS/cm

Compound: OC[C@H]1O[C@@](CO)(O[C@H]2O[C@H](CO)[C@@H](O)[C@H](O)[C@H]2O)[C@@H](O)[C@@H]1O [sucrose]
osmotic pressure [6]: about 130 atm

Now from value to compound:

miscibility with water After addition of CO2 [1]: miscible | miscibility with water Before addition of CO2 [1]: miscible
Compound: CN(C)Cc1cc(CN(C)C)cc(CN(C)C)c1 [1,3,5-C6H3(CH2NMe2)3, N,N,N′,N′,N″,N″-1,3,5-benzenetrimethanamine]

miscibility with water After addition of CO2 [1]: miscible | miscibility with water Before addition of CO2 [1]: immiscible
Compound: CN(C)CC1CC(CN(C)C)CC(CN(C)C)C1 (stereo not shown) [CHTDMA, 1,1′,1″-(cyclohexane-1,3,5-triyl)tris(N,N-dimethylmethanamine)]

C after 30 mins CO2 ([3]; CO2 bubbled at 10 psi, 30 minutes): 3360 μS/cm | Initial C ([3]; mass as listed in 100 mL ultra pure water): 398 μS/cm
Compound: CN(C)CCCN [H2N(CH2)3NMe2, 3-dimethylamino-1-propylamine]

conductivity of ionic form solution after N2 flushing ([4]; 1:1 v/v H2O:amine, N2 at 80° C., after 20 minutes): close to zero
Compound: CN(C)CCN(C)CCN(C)CCN(C)C [HMTETA, 1,1,4,7,10,10-hexamethyl triethylenetetramine]

degree of protonation [5]: 93%
Compound: CN(C)CCCN(C)CCCCN(C)CCCN(C)C [MeSpe, N^1,N^1′-(butane-1,4-diyl)bis(N^1,N^3,N^3-trimethylpropane-1,3-diamine)]

miscibility with water After addition of CO2 [1]: miscible | miscibility with water Before addition of CO2 [1]: immiscible
Compound: CCCN(CC)CCCCN(CC)CCC [N,N′-diethyl-N,N′-dipropyl-1,4-diaminobutane]

miscibility with water After addition of CO2 [1]: immiscible | miscibility with water Before addition of CO2 [1]: immiscible
Compound: CCCN(CCC)CCCCN(CCC)CCC [Pr2NCH2CH2CH2CH2NPr2, N,N,N′,N′-tetrapropyl-1,4-diaminobutane]

miscibility with water After addition of CO2 [1]: miscible | miscibility with water Before addition of CO2 [1]: immiscible
Compound: CCN(CC)CCCCN(CC)CC [TEDAB, N,N,N′,N′-tetraethyl-1,4-diaminobutane]

reduction of conductivity ([4]; 1:1 v/v H2O:amine switched with CO2, 90 minutes at 80° C., N2 through glass frit): approximately 95% | Zeta Potential ([10]; 1 mM additive + […] CO2, illite clay): −4.69 ± 4.23 mV | Zeta Potential ([10]; 1 mM additive + […] CO2, montmorillonite clay): −3.20 ± 4.61 mV | Zeta Potential ([10]; 1 mM additive, illite clay): −39.5 ± 6.32 mV | Zeta Potential ([10]; 1 mM additive, montmorillonite clay): −40.2 ± 6.87 mV | Zeta Potential ([10]; 10 mM additive + […] CO2, illite clay): −3.12 ± 7.16 mV | Zeta Potential ([10]; 10 mM additive + […] CO2, montmorillonite clay): 9.07 ± 4.18 mV | Zeta Potential ([10]; 10 mM additive, illite clay): −48.2 ± 7.44 mV | Zeta Potential ([10]; 10 mM additive, montmorillonite clay): −23.6 ± 5.68 mV | Zeta Potential ([10]; 0.8 molal additive + 1 h CO2, illite clay): −4.56 mV | Zeta Potential ([10]; 0.8 molal additive + 1 h CO2, montmorillonite clay): −5.52 mV | Zeta Potential ([10]; 0.8 molal additive, illite clay): −26.0 ± 3.92 mV | Zeta Potential ([10]; 0.8 molal additive, montmorillonite clay): −25.8 ± 4.14 mV | Zeta Potential, Switching externally ([11]; 1 mM TMDAB): −39.6 ± 6.68 mV | Zeta Potential, Switching in situ ([11]; 1 mM TMDAB): −38.9 ± 8.69 mV | Zeta Potential, Switching externally ([11]; 1 mM TMDAB + 1 h CO2): −5.03 ± 4.46 mV | Zeta Potential, Switching in situ ([11]; 1 mM TMDAB + 1 h CO2): −0.31 ± 4.15 mV | Zeta Potential, Switching externally [11, 13]: −25.0 ± 5.84 mV | Zeta Potential, Switching in situ [11, 13]: −32.5 ± 6.38 mV | Zeta Potential ([11]; 1 mM additive + […] CO2): −5.03 ± 4.46 mV | Zeta Potential ([11]; 1 mM additive): −39.6 ± 6.68 mV | Zeta Potential ([11]; 10 mM additive + […] CO2): −3.35 ± 8.49 mV | Zeta Potential ([11]; 10 mM additive): −50.7 ± 13.1 mV | Zeta Potential ([11]; 0.8 molal additive + 1 h CO2): 2.29 mV | Zeta Potential ([11]; 0.8 molal additive): −17.4 ± 3.92 mV | pH ([12]; kaolinite Sample 2, 1 mM TMDAB): 7.13 | pH ([12]; kaolinite Sample 2, 1 mM TMDAB + CO2): 4.75 | pH ([12]; kaolinite Sample 2, 10 mM TMDAB): 10.41 | pH ([12]; kaolinite Sample 2, 10 mM TMDAB + CO2): 5.95
Compound: CN(C)CCCCN(C)C [TMDAB, N,N,N′,N′-tetramethyl-1,4-diaminobutane]
